In publication PMC12591484 (PLOS One, 2025):

Experiments:
[1] = test system: α1β3γ2L GABAA receptors, bulky mutation at β3M227; set-up: key: +: Mutant-function studies are deemed positive when bulky mutations (mostly tryptophans) at the site significantly reduce positive modulation by anesthetics; -: Negative results are indicated by “–“ symbols; details: cited from earlier work
[2] = test system: α1β3γ2L GABAA receptors, bulky mutation at β3N265; set-up: method as in PMID 30696720, PMID 32247113; key: +: Mutant-function studies are deemed positive when bulky mutations (mostly tryptophans) at the site significantly reduce positive modulation by anesthetics; -: Negative results are indicated by “–“ symbols; details: cited from earlier work
[3] = test system: α1β3γ2L GABAA receptors, bulky mutation at α1A291; set-up: method as in PMID 30696720; key: +: Mutant-function studies are deemed positive when bulky mutations (mostly tryptophans) at the site significantly reduce positive modulation by anesthetics; -: Negative results are indicated by “–“ symbols; details: cited from earlier work
[4] = test system: α1β3γ2L GABAA receptors, bulky mutation at γ2I242; set-up: key to Mutant-function result, γ2– (M1) I242: +: Mutant-function studies are deemed positive when bulky mutations (mostly tryptophans) at the site significantly reduce positive modulation by anesthetics; -: Negative results are indicated by “–“ symbols; details: cited from earlier work
[5] = test system: α1β3γ2L GABAA receptors, bulky mutation at γ2L246; set-up: key: +: Mutant-function studies are deemed positive when bulky mutations (mostly tryptophans) at the site significantly reduce positive modulation by anesthetics; -: Negative results are indicated by “–“ symbols; details: cited from earlier work
[6] = biological target: T1, α1β3M286Cγ2L GABAA receptors (Homo sapiens, UniProt P14867+P18507+P28472, M311C); experiment: Drug protection from pCMBS modification (SCAMP); assay type: cell-based; set-up: key: +: Mutant-function studies are deemed positive when bulky mutations (mostly tryptophans) at the site significantly reduce positive modulation by anesthetics; -: Negative results are indicated by “–“ symbols; details: results of this study (*); etomidate cell also cites [16]
T1 construct: expressed in transfected cells; host or cells: Xenopus oocytes injected with capped mRNA, 1α:1β:5γ
T1 sequence (P14867 28-456): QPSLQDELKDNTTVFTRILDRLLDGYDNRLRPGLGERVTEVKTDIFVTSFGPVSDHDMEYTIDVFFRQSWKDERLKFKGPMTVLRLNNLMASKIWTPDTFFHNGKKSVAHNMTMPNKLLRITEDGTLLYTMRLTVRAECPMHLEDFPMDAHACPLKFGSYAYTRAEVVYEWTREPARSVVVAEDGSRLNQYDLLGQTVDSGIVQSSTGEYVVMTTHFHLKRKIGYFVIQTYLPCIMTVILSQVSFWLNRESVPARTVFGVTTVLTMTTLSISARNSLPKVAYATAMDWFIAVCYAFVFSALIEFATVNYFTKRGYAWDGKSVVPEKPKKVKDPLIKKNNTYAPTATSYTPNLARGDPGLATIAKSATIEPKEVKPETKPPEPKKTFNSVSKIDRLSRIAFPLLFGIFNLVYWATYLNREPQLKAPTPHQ
T1 sequence (P28472 26-473 M311C): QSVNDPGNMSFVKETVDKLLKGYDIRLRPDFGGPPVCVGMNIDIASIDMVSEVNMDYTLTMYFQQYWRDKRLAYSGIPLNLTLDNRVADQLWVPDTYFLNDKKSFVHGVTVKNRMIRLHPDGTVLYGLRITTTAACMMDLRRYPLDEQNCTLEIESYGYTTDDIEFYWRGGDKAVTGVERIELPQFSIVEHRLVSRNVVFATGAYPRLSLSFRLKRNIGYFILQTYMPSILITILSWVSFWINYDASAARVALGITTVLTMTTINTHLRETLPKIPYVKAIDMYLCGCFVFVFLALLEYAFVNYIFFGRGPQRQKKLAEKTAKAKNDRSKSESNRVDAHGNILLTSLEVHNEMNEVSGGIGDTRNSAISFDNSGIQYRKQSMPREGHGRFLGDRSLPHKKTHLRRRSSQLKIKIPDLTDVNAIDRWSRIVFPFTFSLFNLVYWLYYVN
T1 sequence (P18507 40-475): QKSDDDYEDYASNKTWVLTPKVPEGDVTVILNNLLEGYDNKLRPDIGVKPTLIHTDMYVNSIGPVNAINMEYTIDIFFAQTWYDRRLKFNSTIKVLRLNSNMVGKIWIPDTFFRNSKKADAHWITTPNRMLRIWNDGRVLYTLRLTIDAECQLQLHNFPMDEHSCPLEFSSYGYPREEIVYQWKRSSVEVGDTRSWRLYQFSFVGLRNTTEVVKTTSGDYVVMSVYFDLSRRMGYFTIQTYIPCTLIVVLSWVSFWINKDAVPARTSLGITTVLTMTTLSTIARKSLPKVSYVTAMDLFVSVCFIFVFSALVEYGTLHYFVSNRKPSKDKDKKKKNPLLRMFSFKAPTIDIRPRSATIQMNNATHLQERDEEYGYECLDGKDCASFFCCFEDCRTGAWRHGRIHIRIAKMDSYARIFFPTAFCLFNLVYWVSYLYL
Method: (§1) Experiments were performed in ND-96 buffer at room temperature (20–22°C). Oocytes were placed in a low-volume (30µl) flow chamber and impaled with borosilicate microelectrodes filled with 3M KCl (resistance 0.5–3 MΩ) and voltage-clamped at −50 mV (model OC-725C; Warner Instruments, Hamden, CT, USA). Superfusate solutions in ND-96 were delivered at 2 ml/min from glass syringe reservoirs via computer-controlled valves (VC-8; Warner Instruments), a micro-manifold (ALA-VM8; ALA Scientific Instruments, Farmingdale, NY, USA), and PTFE tubing. Currents were digitized at 200 Hz on a computer running ClampEx v8.0 software (Molecular Devices, San Jose, CA, USA). Digitized traces were filtered with a 10-Hz low-pass Bessel function, leak corrected and analyzed for peak amplitude off-line using Clampfit v8 software (Molecular Devices).
(§2) Drug protection from pCMBS modification was assessed under pCMBS exposure conditions that produced approximately half of the maximal modification ratio for each mutant receptor, and a least a value of 3. This approach balanced the magnitude of functional modification signals (smaller with less pCMBS exposure) against the challenge of using a reversibly bound ligand to competitively block an irreversible covalent cysteine-modifying reaction. […] Each oocyte was used in a single SCAMP experiment. […] Etomidate was used as a positive control for anesthetic protection in α1M236C and β3M286C mutants and as a negative control in α1S270C, α1A291C, β3L231C, γ2S301C, γ2I242C, and γ2L246C mutants. R-mTFD-MPAB was used as a positive control in α1S270C, α1A291C, β3L231C, and γ2LS301C mutants and as a negative control in α1M236C and β3M286C mutants. For each cysteine mutant and protective drug combination, five oocytes were studied.
(§3) Non-linear least squares fits and statistical analyses were performed in Prism 10.4.0. (GraphPad Software, San Diego, CA, USA). […] Protection (steric inhibition of pCMBS modification) was inferred when anesthetics produced significant reductions in modification ratios relative to control (no anesthetic) values. The statistical significance threshold was p < 0.05.

[7] = test system: α1β3γ2L GABAA receptors, bulky mutation at α1S270; set-up: key to Mutant-function result, α1+ (M2, M3) S270: +: Mutant-function studies are deemed positive when bulky mutations (mostly tryptophans) at the site significantly reduce positive modulation by anesthetics; -: Negative results are indicated by “–“ symbols; details: cited from earlier work
[8] = test system: α1β3γ2L GABAA receptors, bulky mutation at γ2S280; set-up: method as in PMID 30696720, PMID 32247113; key: +: Mutant-function studies are deemed positive when bulky mutations (mostly tryptophans) at the site significantly reduce positive modulation by anesthetics; -: Negative results are indicated by “–“ symbols; details: cited from earlier work
[9] = biological target: T2, α1β3γ2I242C GABAA receptors (Homo sapiens, UniProt P14867+P18507+P28472, I281C); experiment: Drug protection from pCMBS modification (SCAMP); assay type: cell-based; set-up: key to SCAMP result, γ2– (M1) I242: +: Mutant-function studies are deemed positive when bulky mutations (mostly tryptophans) at the site significantly reduce positive modulation by anesthetics; -: Negative results are indicated by “–“ symbols; details: for SCAMP result, γ2– (M1) I242: results of this study, etomidate cell also cites [9]
T2 construct: expressed in transfected cells; host or cells: Xenopus oocytes injected with capped mRNAs mixed 1α:1β:5γ
T2 sequence (P14867 28-456): as the sequence (P14867 28-456) above
T2 sequence (P28472 26-473): as the sequence (P28472 26-473 M311C) above, with C286M counted along it
T2 sequence (P18507 40-475 I281C): as the sequence (P18507 40-475) above, with I242C counted along it
Method: as §1, §2
as §3, with “The statistical significance threshold was p < 0.05.” left out

[10] = biological target: T3, α1S270Cβ3γ2L GABAA receptors (Homo sapiens, UniProt P14867+P18507+P28472, S297C); experiment: Drug protection from pCMBS modification (SCAMP); assay type: cell-based; set-up: key: +: Mutant-function studies are deemed positive when bulky mutations (mostly tryptophans) at the site significantly reduce positive modulation by anesthetics; -: Negative results are indicated by “–“ symbols; details: results of this study (*)
T3 construct: expressed in transfected cells; host or cells: Xenopus oocytes injected with capped mRNA, 1α:1β:5γ
T3 sequence (P14867 28-456 S297C): as the sequence (P14867 28-456) above, with S270C counted along it
T3 sequence (P28472 26-473): as the sequence (P28472 26-473 M311C) above, with C286M counted along it
T3 sequence (P18507 40-475): as the sequence (P18507 40-475) above
Method: as §1, §2, §3

Compound	Mutant-function result, β3– (M1) M227 [1]	Mutant-function result, β3+ (M2, M3) N265 [2]	Mutant-function result, α1+ (M2, M3) A291 [3]	Mutant-function result, γ2– (M1) I242 [4]	Mutant-function result, γ2– (M1) L246 [5]	SCAMP result, β3+ (M2, M3) M286 [6]	Mutant-function result, α1+ (M2, M3) S270 [7]	Mutant-function result, γ2+ (M2, M3) S280 [8]	SCAMP result, γ2– (M1) I242 [9]	protection from pCMBS modification (significant reduction of modification ratio vs control, p < 0.05) ([9]; γ2I242C (γ–), pCMBS 100 µM x 30 s, […] etomidate or 10 µM pTFD-di-iPr-BnOH, n = 5)	SCAMP result, α1+ (M2, M3) S270 [10]	effect of mutation on receptor modulation by the anesthetic ([4]; γ2I242W mutation)	effect of mutation on receptor modulation by the anesthetic ([7]; α1S270I mutation)
C=CCC1(c2cccc(C3(C(F)(F)F)N=N3)c2)C(=O)NC(=O)N(C)C1=O (stereo not shown) [R-mTFD-MPAB, R-5-allyl-1-methyl-5-(m-trifluoromethyl-diazirynylphenyl) barbituric acid]	+^[9, 15],	-^[13, 15]	+^[13]	-^[9, 15]	-^[9]	-*	+^[13, 15]	+^[13, 15]	–	–	–	–	–
CCOC(=O)c1cncn1[C@H](C)c1ccccc1 [etomidate, R-etomidate]	-^[9, 15]	+^[13, 15]	-^[13]	-^[9, 15]	-^[9]	–	-^[13, 15]	-^[13, 15]	-^[9],6	no protection was inferred	-*	–	–
CC(C)c1cc(C2(C(F)(F)F)N=N2)cc(C(C)C)c1CO [pTFD-di-iPr-BnOH]	+^[15]	-^[15]	–	+^[15]	–	-*	+^[15]	-^[15]	-*	–	-*	significantly reduced	significantly reduced
